Experimental data: patent publication US20170231890A1, “Methods And Compositions For Stimulating Collagen Synthesis In Skin Cells” (ELC Management LLC, priority 2016, published 2017)

Tested on: normal human dermal fibroblasts (NHDF) from a donor
Assay: collagen induction assay (Pro-collagen Type I EIA) in aged fibroblasts
Type: cell-based
Settings: for % Increase in Collagen Induction: 5 days, vs DMEM control
Experimental: Tripeptide-32 was tested at various concentrations for its ability to stimulate collagen production in normal human dermal fibroblasts (“NHDF”) from a donor in a collagen induction assay. Tripeptide-32 was tested at 1× (0.2%) 0.5× (0.1%) and 0.2× (0.04%) concentration diluted in DMEM (“Dulbecco's Modified Eagle Medium”) supplemented with 10% Hyclone® bovine calf serum and 1% Cellgro® penicillin-streptomycin solution (“DMEM”). All percentages are by weight of the total composition.
Cell Growth and Maintenance. Aged NHDF were obtained from ZenBio. Fibroblasts were cultured in DMEM 1× (Life Tech) supplemented with 10% bovine calf serum (“BCS”) (Hyclone) and 1% PenStrep (“PS”) solution (Cellgro). Cells were regularly maintained; subcultured as needed.
Plating Cells. Normal human dermal fibroblasts (NHDF, aged) were plated on a 96-well plate in supplemented DMEM (as indicated above). All rows, except for Row A, were seeded with cells (Row A was left blank to allow for background subtraction). Plate was allowed to incubate at standard conditions (37° C., 5% CO2, 95% humidity) overnight.
Preparation & Treatment of Cells. The following treatments were created in full media (1% P/S and 10% BCS supplemented) DMEM: (1) Laminaria digitata extract (0.5%); Acetyl hexapeptide-8 solution (a mixture of 0.05% Acetyl hexapeptide-8, 99.35% water and the remainder preservatives) (10%); and whey protein (0.1%, solid) with the remainder DMEM (the “Mixture”); (2) Mixture+Tripeptide-32: Laminaria digitata extract (0.5%), Acetyl hexpeptide-8 solution (10%), whey protein (0.1%) and Tripeptide-32 (0.2%) in DMEM at 1× (0.2%), 0.5× (0.1%), and 0.2× (0.04%) concentration; (3) Tripeptide-32 alone at 1× (0.2%), 0.5× (0.1%) and 0.2× (0.04%) concentration. Each treatment (200 ul/well) was added to the corresponding well of the 96-well plate. Treated plate was allowed to incubate at standard conditions (37° C., 5% CO2, 95% humidity) for 5 days.
Assessment of Collagen Production. Collagen production was assessed using the Pro-collagen Type I collagen EIA Kit (Takara) as per manufacturer's protocol, exactly as described. Plate was read using the Gemini M2E plate reader and results were compared.
The combination of Tripeptide-32 and a mixture of Acetyl hexapeptide-8, Laminaria digitata extract and whey protein were tested for collagen stimulation in NHDF from a donor. Tripeptide-32 at a concentration of 0.2% was combined with a mixture of Acetyl hexapeptide-8 solution (0.05% Acetyl hexapeptide-8, 99.35% water, remainder preservatives) (10%); 0.5% Laminaria digitata extract solution, and 0.1% whey protein in Supplemented DMEM.
The tests were performed according to the method in Example 1.

## Ser-Thr-Pro-NH2 [Tripeptide-32]
0.2× (0.04%)
  collagen synthesis (result in words): decreased collagen synthesis
0.2× concentration (Tripeptide-32 0.04%)
  % Increase in Collagen Induction: −15.39%
0.5× (0.1%) and 1× (0.2%) concentrations
  collagen synthesis (result in words): nearly insignificant increase in collagen synthesis
0.5× concentration (Tripeptide-32 0.1%)
  % Increase in Collagen Induction: +1.17%
1.0× concentration (Tripeptide-32 0.2%)
  % Increase in Collagen Induction: +3.27%
